The target in the experiment is T1, Eg5 motor protein (Homo sapiens, UniProt P52732).
T1 construct: Eg5 motor domain (amino acids 1-368) was cloned into pET22b; His-tag (C); made in house; host or cells: Escherichia coli BL21 (DE3)
T1 sequence (P52732 1-368): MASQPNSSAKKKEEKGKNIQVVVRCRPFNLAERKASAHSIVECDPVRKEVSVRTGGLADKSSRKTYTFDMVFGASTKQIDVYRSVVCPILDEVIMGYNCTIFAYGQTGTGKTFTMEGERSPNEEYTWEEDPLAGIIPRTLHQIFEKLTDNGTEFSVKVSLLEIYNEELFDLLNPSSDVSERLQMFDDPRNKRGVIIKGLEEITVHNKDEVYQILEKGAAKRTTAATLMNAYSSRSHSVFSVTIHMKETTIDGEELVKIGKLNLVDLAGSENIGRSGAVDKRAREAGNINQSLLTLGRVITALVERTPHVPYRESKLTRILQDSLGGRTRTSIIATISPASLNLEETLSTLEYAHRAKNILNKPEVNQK
As to the kind of experiment: Lineweaver–Burk plot analysis of Eg5 ATPase inhibition. The class given is biochemical. How it is done: Assays followed methods similar to that described above for the primary Eg5 motor protein ATPase assay. For either study, compound C9 were tested at 60.50 μM, 30.25 μM, 15.13 μM, 0 μM. ATP concentration was varied from 52 μM to 417 μM. The enzyme concentration tested was 100 nM. All conditions were performed in three independent duplicate experiments. The data were analyzed with GraphPad Prism 6.02 software.
Figure 1 Steady-state inhibition of Eg5 by C9. […] Lines represent a curve fit of the global data set to a mixed-type inhibition model.

SMILES strings stand for the structures.

The source of these data is PMC8037182, “Solvothermal Synthesis of Multiple Dihydropyrimidinones at a Time as Inhibitors of Eg5” (Molecules, 2021).

What is called Ki is a dissociation constant, usually derived from enzyme kinetics or from competition with a known ligand.

With `CCOc1ccccc1C1NC(=S)NC(C)=C1C(=O)Nc1ccc(Cl)cc1` (centres unmarked) [C9], the “Slope of the Lineweaver-Burk plot, Mean” value reads like this: (C9 15.13 uM) 0.649; (C9 30.25 uM) 0.942; (C9 60.50 uM) 1.374. Besides, the “OD630 Value Mean” value by setting is: (C9 15.13 uM, ATP 0.052 mM) 0.142; (C9 15.13 uM, ATP 0.104 mM) 0.177; (C9 15.13 uM, ATP 0.209 mM) 0.199; (C9 15.13 uM, ATP 0.313 mM) 0.226; (C9 15.13 uM, ATP 0.417 mM) 0.268; (C9 30.25 uM, ATP 0.052 mM) 0.126. The “OD630 Value Mean” value is 0.155 (C9 30.25 uM, ATP 0.104 mM); 0.174 (C9 30.25 uM, ATP 0.209 mM); 0.197 (C9 30.25 uM, ATP 0.313 mM); 0.231 (C9 30.25 uM, ATP 0.417 mM); 0.114 (C9 60.5 uM, ATP 0.052 mM); 0.138 (C9 60.5 uM, ATP 0.104 mM). For the same compound, the “OD630 Value Mean” value is, setting by setting: (C9 60.5 uM, ATP 0.209 mM) 0.156; (C9 60.5 uM, ATP 0.313 mM) 0.171; (C9 60.5 uM, ATP 0.417 mM) 0.198. In addition, the “type of Eg5 inhibition” value (Lineweaver–Burk plot, ATP varied 52–417 μM) is “mixed-type Eg5 inhibitor”. For the setting “secondary plot of Lineweaver–Burk plot, slope versus concentration”, the Ki worked out at 15.7 µM.
